Like-named read-outs stand apart in the source and are kept apart here.
Experiments:
Format in all cases: cell-based
[1] = MTT cell viability run in parallel with the Tat-hybrid assay; settings: human, Tat-hybrid reporter cell lines (HeLa); for CC50 at 48 h: Table 5, read-out: Tat hybrid TC50; for EC50 at 48 h: Table 6, second 'EC50' entry of the cell, values D/E
Protocol: (§1) Cells were counted and plated into white 384-well or 96-well cell-culture treated assay plates and compounds were added. After 48 hours, the cells were prepared for luminescence assays that were performed on a plate reader (Tecan Evolution or MD Analyst). The cytotoxicity of each compound was determined in parallel via MTT-based cell viability assays.
as §1, with “Tat hybrid reporter assay. […] Previously characterized thienopyridines and diaminoacridine were used as controls. Cells” for “Cells”, “384-well” for “384-well or 96-well”, “lumincescence” for “luminescence”, “assays. […]” for “assays.”

[2] = test system: HIV-1 provirus in U1 cells; assay: U1 activation (latency) assay, p24 ELISA
Protocol: (§2) U1 activation assay. U1 cells obtained from the AIDS Research and Reference Reagent Program were maintained under standard culture conditions in RPMI 1640 supplemented with 10% fetal bovine serum (heat inactivated), 2 mM L-glutamine, 100U/mL penicillin and 100 μg/mL streptomycin. U1 cells contain an integrated copy of a phorbol ester inducible HIV-1 provirus and addition of phytohemagglutinin (PHA) to the cell culture was used to induce virus production. On the day of the assay, the U1 cells were activated with PHA and 250,000 cells were plated in 96-well plates. Test compounds were diluted in media and applied to the cells at final concentrations from 1 to 10,000 nM. Cultures were incubated for 3 days and supernatants harvested. Cell-free virus production was measured by p24 ELISA on culture supernatant. Compound toxicity was determined by MTT cell-viability assay in parallel assays.

[3] = MTT cell viability in parallel with the U1 assay; settings: human, U1 cells, read-out: U1 TC50
Protocol: as §2

[4] = test system: Tat-hybrid reporter cell lines (HeLa); assay: MTT cell viability run in parallel with the Tat-hybrid assay; settings: Table 6; at 50,000 nM
Protocol: as §1
as §1, with “Tat hybrid reporter assay. […] Previously characterized thienopyridines and diaminoacridine were used as controls. Cells” for “Cells”, “384-well” for “384-well or 96-well”, “lumincescence” for “luminescence”, “assays. […]” for “assays.”

[5] = Human immunodeficiency virus 1, Table 5, read-out: U1 IC50
[6] = Human immunodeficiency virus 1, read-out: U1 cell IC50 (nM)
[7] = Human immunodeficiency virus 1, Table 2, read-out: U1 cell IC50

SMILES	CC50 at 48 h [1] [nM]	IC50 [2, 5] [nM]	CC50 at 3 days ([3]; Table 5) [nM]	further results
CCOc1ccc(-c2cncc3sc(C(N)=O)cc23)cc1	< 40000	< 100	< 40000	–
NC(=O)c1cc2c(-c3ccc4c(c3)OCCO4)cncc2s1	< 40000	< 100	< 40000	–
NC(=O)c1sc2cncc(N3CCc4ccccc4C3)c2c1N	< 40000	< 100	< 40000	–
NC(=O)c1sc2cncc(-c3cccc4ccccc34)c2c1N	> 40000	< 100	< 40000	–
COc1cc2c(cc1OC)CN(c1cncc3sc(C(N)=O)c(N)c13)CC2	< 40000	< 100	< 40000	–
NC(=O)c1sc2cncc(N3CCc4sccc4C3)c2c1N	> 40000	< 100	< 40000	–
CN(C)c1ccc(-c2cncc3sc(C(N)=O)c(N)c23)cc1	< 40000	< 100	> 40000	–
NC(=O)c1cc2c(-c3ccc(Oc4ccccc4)cc3)cncc2s1	< 40000	100 to 500	–	–
NC(=O)c1cc2c(N3CCCCC3)cncc2s1	> 40000	100 to 500	< 40000	–
NC(=O)c1cc2c(-c3cc4ccccc4o3)cncc2s1	> 40000	> 500	< 40000	–
CNC(=O)c1ccc(-c2cncc3sc(C(N)=O)c(N)c23)cc1	< 40000	< 100	> 40000	–
CN(C)C(=O)c1ccc(-c2cncc3sc(C(N)=O)c(N)c23)cc1	< 40000	100 to 500	> 40000	–
NC(=O)c1sc2cncc(-c3ccoc3)c2c1N	> 40000	100 to 500	< 40000	–
NC(=O)c1cc2c(-c3ccccc3OC(F)(F)F)cncc2s1	> 40000	> 500	< 40000	–
NC(=O)c1sc2cncc(-c3ccc4cc[nH]c4c3)c2c1N	> 40000	100 to 500	> 40000	–
NC(=O)c1sc2cncc(-c3ccc4c(c3)OCCO4)c2c1N	< 40000	100 to 500	> 40000	–
NC(=O)c1cc2c(N3CCOCC3)cncc2s1	> 40000	100 to 500	< 40000	–
COc1ccccc1-c1cncc2sc(C(N)=O)c(N)c12	> 40000	100 to 500	> 40000	–
COc1ncc(-c2cncc3sc(C(N)=O)cc23)c(OC)n1	> 40000	> 500	> 40000	–
CCOc1ncccc1-c1cncc2sc(C(N)=O)c(N)c12	> 40000	100 to 500	> 40000	–
NC(=O)c1sc2cncc(N3CCCC3)c2c1N	–	100 to 500	> 40000	–
NC(=O)c1sc2cncc(-c3ccccc3)c2c1N	–	100 to 500	> 40000	–
NC(=O)c1sc2nc(-c3cccnc3)ccc2c1N	–	–	–	EC50 at 48 h [1]: < 40000 nM; Tat hybrid cell viability at 50,000 nM [4]: X (X = >60%)
COC(=O)c1sc2nc(C)cc(C)c2c1N	–	–	–	EC50 at 48 h [1]: > 40000 nM; Tat hybrid cell viability at 50,000 nM [4]: X (X = >60%)

SMILES	CC50 at 48 h [1] [nM]	IC50 [2, 5] [nM]	CC50 at 3 days ([3]; Table 5) [nM]	further results
Cc1nc2sc(C(N)=O)c(N)c2c(C)c1C	–	–	–	EC50 at 48 h [1]: > 40000 nM; Tat hybrid cell viability at 50,000 nM [4]: X (X = >60%)
COc1ccc(-c2cc(C3CC3)nc3sc(C(N)=O)c(N)c23)cc1	–	–	–	EC50 at 48 h [1]: > 40000 nM; Tat hybrid cell viability at 50,000 nM [4]: X (X = >60%)
Cc1ccc(-c2c3c(nc4sc(C(N)=O)c(N)c24)CCC3)cc1	–	–	–	Tat hybrid cell viability at 50,000 nM [4]: X (X = >60%); IC50 ([2]; Human immunodeficiency virus 1, Table 6, read-out: U1 IC50): > 500 nM; CC50 at 3 days ([3]; Table 6): < 40000 nM
Cc1ccnc2sc(C(N)=O)c(N)c12	–	–	–	EC50 at 48 h [1]: < 40000 nM; Tat hybrid cell viability at 50,000 nM [4]: X (X = >60%)
Cc1cc(C)c2c(N)c(C(=O)O)sc2n1	–	–	–	EC50 at 48 h [1]: > 40000 nM; Tat hybrid cell viability at 50,000 nM [4]: X (X = >60%)
NC(=O)c1sc2ncccc2c1N	–	–	–	EC50 at 48 h [1]: > 40000 nM; Tat hybrid cell viability at 50,000 nM [4]: Y (Y = 30-60%)
CC(=O)c1sc2nc(C)cc(C)c2c1N	–	–	–	EC50 at 48 h [1]: > 40000 nM; Tat hybrid cell viability at 50,000 nM [4]: Y (Y = 30-60%)
COC(=O)c1sc2nccc(N(C)C)c2c1N	–	–	–	EC50 at 48 h [1]: < 40000 nM; Tat hybrid cell viability at 50,000 nM [4]: X (X = >60%)
CN(C)C(=O)c1sc2ncccc2c1N	–	–	–	EC50 at 48 h [1]: < 40000 nM; Tat hybrid cell viability at 50,000 nM [4]: X (X = >60%)
CN(C)c1ccnc2sc(C(N)=O)c(N)c12 [Compound 1f, 3-amino-4-(dimethylamino)thieno[2,3-b]pyridine-2-carboxamide]	–	–	–	IC50 [2, 6]: > 500 nM
NC(=O)c1sc2cncc(N3CCC(C(N)=O)CC3)c2c1N [Compound 2c, 1-{3-amino-2-carbamoylthieno[2,3-c]pyridin-4-yl}piperidine-4-carboxamide]	–	–	–	IC50 [2, 6]: 100 to 500 nM
NC(=O)c1sc2cncc(N3CCC4(CC3)OCCO4)c2c1N [Compound 2g, 3-amino-4-{1,4-dioxa-8-azaspiro[4.5]decan-8-yl}thieno[2,3-c]pyridine-2-carboxamide]	–	–	–	IC50 [2, 6]: 100 to 500 nM
NC(=O)c1sc2cncc(N3CCC(F)(F)CC3)c2c1N [Compound 2h, 3-amino-4-(4,4-difluoropiperidin-1-yl)thieno[2,3-c]pyridine-2-carboxamide]	–	–	–	IC50 [2, 6]: 100 to 500 nM
NC(=O)c1sc2nccc(N3CCc4ccccc4C3)c2c1N [Compound 2i, 3-amino-4-(1,2,3,4-tetrahydroisoquinolin-2-yl)thieno[2,3-b]pyridine-2-carboxamide]	–	–	–	IC50 [2, 6]: < 100 nM
NC(=O)c1sc2cncc(N3CCC(Oc4ccccc4)CC3)c2c1N [Compound 2j, 3-amino-4-(4-phenoxypiperidin-1-yl)thieno[2,3-c]pyridine-2-carboxamide]	–	–	–	IC50 [2, 6]: < 100 nM
Cc1noc(C2CCCN(c3cncc4sc(C(N)=O)c(N)c34)C2)n1 (stereo not drawn) [Compound 2k, 3-amino-4-[3-(3-methyl-1,2,4-oxadiazol-5-yl)piperidin-1-yl]thieno[2,3-c]pyridine-2-carboxamide]	–	–	–	IC50 [2, 6]: > 500 nM
COc1ccc(-c2cncc3sc(C(N)=O)c(N)c23)cc1 [Compound 3a, 3-amino-4-(4-methoxyphenyl)thieno[2,3-c]pyridine-2-carboxamide]	–	–	–	IC50 [2, 7]: < 100 nM
NC(=O)c1sc2cncc(-c3ccc4c(c3)CCO4)c2c1N [Compound 3e, 3-amino-4-(2,3-dihydro-1-benzofuran-5-yl)thieno[2,3-c]pyridine-2-carboxamide]	–	–	–	IC50 [2, 7]: < 100 nM
NC(=O)c1sc2cncc(-c3ccc4c(c3)OCO4)c2c1N [Compound 3f, 3-amino-4-(2H-1,3-benzodioxol-5-yl)thieno[2,3-c]pyridine-2-carboxamide]	–	–	–	IC50 [2, 7]: 100 to 500 nM
N#Cc1ccc(-c2cncc3sc(C(N)=O)cc23)cc1F [Compound 4c, 4-(4-cyano-3-fluorophenyl)thieno[2,3-c]pyridine-2-carboxamide]	–	–	–	IC50 [2, 7]: 100 to 500 nM
N#Cc1ccccc1-c1cncc2sc(C(N)=O)cc12 [Compound 4d, 4-(2-cyanophenyl)thieno[2,3-c]pyridine-2-carboxamide]	–	–	–	IC50 [2, 7]: > 500 nM
NC(=O)c1cc2c(-c3ccc4c(c3)OCO4)cncc2s1 [Compound 4f, 4-(2H-1,3-benzodioxol-5-yl)thieno[2,3-c]pyridine-2-carboxamide]	–	–	–	IC50 [2, 7]: < 100 nM
NC(=O)c1cc2c(-c3cccc(-c4ccccc4)c3)cncc2s1 [Compound 4j, 4-(3-phenylphenyl)thieno[2,3-c]pyridine-2-carboxamide]	–	–	–	IC50 [2, 7]: 100 to 500 nM
N#Cc1ccc(-c2cncc3sc(C(N)=O)cc23)cc1F [drawing 143]	> 40000	100 to 500	–	–

From patent US10154992B2, “Compounds and methods for treating HIV infection” (THE REGENTS OF THE UNIVERSITY OF CALIFORNIA, priority 2016, dated 2018)
